# From PubChem BioAssay AID687022 (Broad Institute, 2013)
# Calls of active or inactive are those of the source.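 How the source made its calls: active means Fitted curve of melting temperature shift crosses the 1.0 threshold at or below the sample's highest valid tested concentration; inconclusive means Flat fit with activity 30 to 70, or invalid fit; inactive means Opposite direction, flat within 30, or no crossing.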
# Molecular target: Fibroblast growth factor 22 (Homo sapiens) (UniProt Q9HCT0)
# Test: FGF22 ligand-induced thermal stabilization – biophysical, thermal shift, cherry-pick, FGF22 synaptogenesis inhibitor project, dose response (AID 687022)
# Conditions: recombinant FGF22 thermal shift, SYPRO orange melting
# Sequence of Fibroblast growth factor 22 (Homo sapiens) (Q9HCT0 whole entry, looked up): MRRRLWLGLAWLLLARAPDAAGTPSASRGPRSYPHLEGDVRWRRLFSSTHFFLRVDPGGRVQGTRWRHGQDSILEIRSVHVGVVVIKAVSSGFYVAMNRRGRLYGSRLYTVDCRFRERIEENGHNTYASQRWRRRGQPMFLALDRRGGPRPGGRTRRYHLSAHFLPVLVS
row,Structure (SMILES),AbsAC1 (concentration giving Tm-shift threshold 1.0)
1,Nc1cccc(-c2nc3ccc(C(=O)c4ccccc4)cc3[nH]2)c1,1.15 µM
2,COc1ccc(-c2ccc([C@H]3[C@H]4CN(C(=O)c5ccc6c(c5)OCO6)CCCCN4[C@H]3CO)cc2)cc1,15.9 µM
3,CCN1C(=O)C(CC(=O)Nc2ccc(OC)cc2)N(CCc2ccc(OC)cc2)C1=S (stereo not drawn),6.95 µM
4,O=C(N/N=C/c1c[nH]c2ccccc12)C1CC1c1ccccc1 (stereo not drawn),14 µM
5,Cc1noc(C)c1NC(=O)N[C@@H]1C=C[C@H](CC(=O)Nc2ccc(-c3ccccc3)cc2)O[C@@H]1CO,5.28 µM
6,O=C(CN1C(=O)NC(Cc2c[nH]c3ccccc23)C1=O)Nc1ccc(Br)cc1F (stereo not drawn),4.93 µM
7,COc1cccc(NC(=O)N(C)C[C@@H]2Oc3cc(-c4ccccc4F)ccc3S(=O)(=O)N([C@@H](C)CO)C[C@H]2C)c1,16.3 µM
8,O=[N+]([O-])c1cccc(S(=O)(=O)Nc2ccc(-c3ccc(N4CCOCC4)nn3)cc2)c1,7.01 µM
9,N#CC(C#N)=C1NC(N)=C(C#N)C(c2ccccc2)=C1C#N,4.02 µM
10,CC(=O)Nc1ccc(/C(C)=N/Nc2nc(Nc3ccccc3)nc(N3CCOCC3)n2)cc1,7.91 µM
11,O=C(NN=Cc1ccc(O)cc1)c1ccccc1NS(=O)(=O)c1cccs1,5.76 µM
12,CN1C(=O)c2cc(NC(=O)c3cccc(F)c3)ccc2OC[C@@H]2O[C@H](CC(=O)NCC3CCCCC3)CC[C@@H]21,16.8 µM
13,CC1CCN(Cc2c(C(=O)N/N=C/c3ccc(OC(C)C)cc3)nnn2-c2nonc2N)CC1,14 µM
14,COc1ccccc1NC(=O)N[C@H]1CC[C@H](CCn2cc(-c3ccccc3OC)nn2)O[C@H]1CO,4.01 µM
15,NC(=O)c1ccsc1NC(=O)COC(=O)CCCOc1ccccc1,5.37 µM
16,C[C@@H]1CN([C@@H](C)CO)S(=O)(=O)c2ccc(-c3ccc(F)cc3)cc2O[C@@H]1CN(C)C(=O)Nc1ccccc1F,> 38 µM (inactive)
17,COc1cccc(NC(=O)CN(C)C(=O)c2ccc(NC3CC3)c([N+](=O)[O-])c2)c1,5.08 µM
18,COc1ccc(/C=N/NC(=O)c2ccc(NS(=O)(=O)c3cccs3)cc2)cc1,7.28 µM
19,COc1cccc(NC(=O)N(C)C[C@H]2Oc3cc(-c4ccccc4F)ccc3S(=O)(=O)N([C@H](C)CO)C[C@@H]2C)c1,8.76 µM
20,C/C(=N\NC(=O)c1cccc(S(=O)(=O)N2CCOCC2)c1)c1ccc(OC(F)F)cc1,21.9 µM
21,COc1ccccc1NS(=O)(=O)c1cc(C(=O)Nc2ccc(S(=O)(=O)Nc3onc(C)c3C)cc2)ccc1C,4.31 µM

row,Structure (SMILES),AbsAC1 (concentration giving Tm-shift threshold 1.0)
1,COc1ccc(NS(=O)(=O)c2cccc(C(=O)NNC(=O)c3ccccc3O)c2)cc1,10.4 µM
2,CC(=O)Nc1ccc(NC(=O)Nc2ccccc2)cc1,2.14 µM
3,CC(C)(C)[S@@](=O)N1Cc2cc(C(=O)NCc3ccccc3F)nc(-c3cccc(-c4ccncc4)c3)c2[C@H]1CCO,> 38 µM (inactive)
4,Oc1ccc(-c2nnc(Nc3cccc(O)c3)c3ccccc23)cc1,5.28 µM
5,O=C(N/N=C/c1cccc(Oc2ccccc2)c1)c1cccc(O)c1,3.12 µM
6,COc1cccc(NC(=O)CN(C)C(=O)c2cn(-c3ccccc3)nc2-c2cccs2)c1,6.16 µM
7,O=C(C[C@H]1CC[C@@H]2[C@H](COC[C@H](O)CN2S(=O)(=O)c2cccc(F)c2)O1)Nc1ccccc1,3.48 µM
8,O=C(NN1C(=O)CSC1=S)C(=O)NN1C(=O)CSC1=S,5.24 µM
9,CSCCC(NS(=O)(=O)c1ccc(Cl)c(Cl)c1)C(=O)O (stereo not drawn),> 38 µM (inactive)
10,O=C(NN=Cc1ccc(O)cc1O)c1ccccc1NS(=O)(=O)c1cccs1,32.7 µM
11,COc1cccc(C(=O)Nc2cccc(NC(=O)c3cccs3)c2)c1,1.72 µM
12,C[C@@H]1CN([C@@H](C)CO)C(=O)c2cc(NS(=O)(=O)c3ccc(Cl)cc3)ccc2O[C@@H]1CN(C)S(=O)(=O)c1ccc(F)cc1,21.9 µM
13,C[C@H](CO)N1C[C@H](C)[C@H](CN(C)C(=O)Nc2ccc3c(c2)OCO3)Oc2cc(C3=CCCCC3)ccc2S1(=O)=O,20.3 µM
14,CCCC(=O)c1ccc(OCc2cn(CC(=O)c3ccc(O)cc3)nn2)cc1,8.45 µM
15,O=C(Nc1ccc(S(=O)(=O)N2CCOCC2)cc1)c1ccc(F)cc1,12.7 µM
16,CCCOC(=O)c1ccc(Oc2cn[nH]c2-c2ccc(O)cc2O)cc1,18.6 µM
17,CC(C)Oc1ccc(F)cc1-c1cc(C(=O)NCc2cccs2)[nH]n1,8.55 µM
18,COc1cccc(NC(=O)N(C)C[C@@H]2Oc3cc(-c4ccccc4F)ccc3S(=O)(=O)N([C@@H](C)CO)C[C@@H]2C)c1,2.97 µM
19,O=S(=O)(Nc1cccc(-n2cnnn2)c1)c1ccc(Cl)cc1,27.6 µM
20,O=S1(=O)N=C(N(Cc2cccs2)c2ccc(O)cc2)c2ccccc21,1.47 µM
21,O=C(NCC1CC1)c1onc(CSc2ccc(F)cc2)c1C(=O)NCC1CC1,2.58 µM

row,Structure (SMILES),AbsAC1 (concentration giving Tm-shift threshold 1.0)
1,O=C(NCC[C@@H]1CC[C@H](NC(=O)c2cnccn2)[C@H](CO)O1)Nc1ccc(F)cc1,41 µM
2,CC(=O)Nc1ccc(S(=O)(=O)NCCc2c[nH]c3ccc(C)cc23)cc1,21.6 µM
3,CCNC(=O)C[C@@H]1CC[C@H]2[C@H](COc3ccc(NC(=O)Nc4ccc(Cl)cc4)cc3C(=O)N2C)O1,6.25 µM
4,CC(=O)c1ccc(OCCCC(=O)Nc2ccc(S(=O)(=O)N3CCOCC3)cc2)cc1,> 38 µM (inactive)
5,Oc1cc(O)cc(C=Cc2ccc(O)c(O)c2)c1,11.9 µM
6,O=C1Nc2cc(Cl)c(Cl)cc2N(O)N1c1ccc(Cl)cc1,4.98 µM
7,Cc1onc(-c2ccccc2)c1C(=O)Nc1ncc([N+](=O)[O-])s1,17.1 µM
8,Cc1cc(C)cc(NS(=O)(=O)c2cc3[nH]c(=O)c(=O)[nH]c3cc2C)c1,10.2 µM
9,O=C(O)c1cccc(NS(=O)(=O)c2ccc(Cl)c(C(=O)Nc3cccc([N+](=O)[O-])c3)c2)c1,11.9 µM
10,O=S(=O)(O)c1cccc2cccc(Nc3ccccc3)c12,9.29 µM
11,CCN(CC)c1ccc(/C=N/NC(=O)c2c[nH]c3ccccc23)cc1,26.8 µM
12,COc1ccc2nc(NC(=O)CCc3cc(OC)c(OC)c(OC)c3)sc2c1,19.3 µM
13,Cc1ccccc1-n1c(O)c(/C=N/NC(=O)c2ccccc2O)c(=O)[nH]c1=S,3.51 µM
14,O=C(NCc1ccc(Cl)cc1)c1n[nH]c([N+](=O)[O-])c1Cl,5.18 µM
15,CC(C)n1c(=O)c2ccccc2n1Cc1cn(-c2ccc(Cl)cc2)nn1,3.24 µM
16,O=[N+]([O-])c1ccc2nc(-c3ccccc3)[nH]c2c1,3.88 µM
17,Oc1ccc(-c2csc(Nc3ccccn3)n2)c(O)c1,5.13 µM
18,O=C(O)/C=C/c1cccc(NC(=O)Nc2ccc([N+](=O)[O-])cc2)c1,4.49 µM
19,S=C(Nc1ccc(N2CCOCC2)cc1)Nc1ccc2snnc2c1,9.95 µM
20,COc1ccccc1NC(=O)Nc1cccc(NC(C)=O)c1,7.52 µM
21,O=C(NC1CC1)c1cccc(NC(=O)c2cnn(-c3ccccc3)n2)c1,11.7 µM

row,Structure (SMILES),AbsAC1 (concentration giving Tm-shift threshold 1.0)
1,C/C=C/c1ccc2c(c1)O[C@@H](CN(C)C(=O)Nc1cc(F)ccc1F)[C@@H](C)CN([C@H](C)CO)S2(=O)=O,20.6 µM
2,CCOc1cccc(C(=O)Nc2ccc3[nH]ncc3c2)c1,3.89 µM
3,O=C(Cn1cc(COc2ccc(Br)cc2)nn1)c1ccc(O)cc1,7.63 µM
4,O=C(Nc1ccc(S(=O)(=O)N2CCCC2)cc1)c1cccs1,9.33 µM
5,CO[C@H](CN(C)S(=O)(=O)c1cccc(Cl)c1)[C@H](C)CN([C@H](C)CO)S(=O)(=O)c1cccc(Cl)c1,14.1 µM
6,O=C(Nc1ccc(F)cc1)N[C@H]1CC[C@@H](CCn2cc(-c3ccccc3F)nn2)O[C@@H]1CO,7.38 µM
7,O=C(N/N=C/c1c(O)ccc2ccccc12)c1[nH]ncc1Br,23.7 µM
8,O=C(CC(=O)c1ccccc1)Nc1cccc([N+](=O)[O-])c1,4.49 µM
9,Cc1ccc(NC(=O)Nc2cccnc2)cc1,27.1 µM
10,CC(=O)C1=C(O)C(=O)N(c2ccc(S(=O)(=O)Nc3nccs3)cc2)C1c1ccc(F)cc1 (stereo not drawn),> 19.5 µM (inactive)
11,O=C(O)c1ccccc1Nc1ccc([N+](=O)[O-])cc1,16.2 µM
12,O=C(Nc1ccc(F)c(Cl)c1)C1CCCN(C2=NS(=O)(=O)c3ccccc32)C1 (stereo not drawn),> 38 µM (inactive)
13,Cn1c(=O)c2c(-c3ccccc3)n(-c3cc(Cl)c([N+](=O)[O-])cc3O)cc2n(C)c1=O,2.38 µM
14,Oc1cc(O)cc(-c2cc3ccc(O)cc3o2)c1,14.9 µM
15,COc1ccc(Cc2nnc(NS(=O)(=O)c3ccccc3)s2)cc1,> 19.5 µM (inactive)
16,CO[C@@H](CN(C)S(=O)(=O)c1cccc(Cl)c1)[C@@H](C)CN([C@H](C)CO)S(=O)(=O)c1cccc(Cl)c1,10.3 µM
17,O=C(Nc1nnc(C(F)(F)F)s1)c1ccc(Br)s1,15.6 µM
18,CCOC(=O)N1CCN(C(=O)CCCCCn2c(=S)[nH]c3ccsc3c2=O)CC1,13.8 µM
19,O=c1ccc2nc3ccccc3sc-2c1,8.27 µM
20,Nc1nnc(CC(=O)N/N=C/c2cc([N+](=O)[O-])cc(Br)c2O)s1,4.99 µM
